Legend:
[1] = tested on: nitric oxide (NO) production in RAW264.7 macrophages; test: In vitro anti-inflammatory activity: nitric oxide production (Griess) in LPS-exposed RAW264.7 macrophages; assay type: cell-based, mouse; conditions: for inhibition at 5 µM / inhibition at 10 µM: Mus musculus, RAW264.7, read-out: % NO Inhibition ± SD; for inhibition at 5 µM / inhibition at 10 µM / % NO inhibition: LPS 24 hrs; for % NO inhibition: concentration not given
Experimental: Measurement of Nitric oxide: RAW264.7 macrophages were seeded in 96-well plates with a density of 0.5×10^5 cells/well and incubated overnight at 37° C. in a 5% CO2 atmosphere. The cells were treated with different concentration of CBD and its analogues and exposed to LPS for 24 hrs. For nitric oxide (NO) determination, the cell culture supernatant was taken and mixed with equal volume of Griess reagent in another 96 well plate at room temperature (Biomed Pharmacother., 2017, 92, 175-186). The absorbance was measured at 540 nm. The final calculations were determined on a NaNO2 standard curve.

[2] = Cell viability assay in macrophage RAW264.7 cells (MTT); assay type: cell-based; conditions: mouse, read-out: % cell viability ± SD; for viability at 24 h, 5 µM: RAW264.7, 5 μM; for viability at 24 h, 10 µM: RAW264.7, 10 μM
Experimental: RAW264.7 cells were seeded in 96-well cell culture plates at a density of 1×10^4 cells per well and incubated overnight at 37° C. with 5% CO2. Next day, the cells were treated with CBD or its derivatives at 5 μM and/or 10 μM concentration for 24 hrs. The MTT dye (2.5 mg/ml, 20 μL) was added to each well 4 hrs before termination (Molecules. 2022, 27, 8068). After 4 hrs of incubation with MTT, the supernatant was discarded, and the formazan crystals were dissolved by adding 100 μL DMSO. The absorbance was recorded at 540 nm on microplate reader (Tecan Infinite Pro).

[3] = Cell viability assay in differentiated neuronal cells (MTT), SHSY5Y; assay type: cell-based; conditions: human, read-out: % Cell viability ± SD, SHSY5Y
From the text: (§1) In the present disclosure outlined herein, a focused library of cannabidiol analogues were studied for possible neuro-protective potential employing cell line-based stress model systems which mimic the biological stress conditions in vitro (J Cell Biochem., 2018, 119(8), 6482-6491).
(§2) Human neuroblastoma cells (SHSY5Y) and mouse neuroblastoma cells (N2A) were procured from American Type Culture Collection (ATCC). SHSY5Y cell cultures were maintained in DMEM F12 (Invitrogen) whereas N2A were cultured in DMEM (Invitrogen) with 10% Fetal Bovine Serum (Gibco) medium, subjected to differentiation to acquire neuronal morphology (employing differentiation media DMEM-F12, 3-5% FBS, (For differentiation, low concentration of FBS was used) and 50 μM retinoic acid). Differentiated cells were later seeded into 96 well plates, at a density of 1×10^4 before being incubated for 48 hrs with the synthesized library. The exhausted culture media was substituted with new culture media containing 0.5 mg/ml MTT dye. Eventually, the OD at 490 nm excitation was measured using a 96-well plate reader. The proportion of viable cells was determined as percentage of absorbance of untreated cultures relative to control.

[4] = Cell viability assay in differentiated neuronal cells (MTT), N2A; assay type: cell-based; conditions: mouse, read-out: % Cell viability ± SD, N2A
From the text: as §1, §2

Molecule	inhibition at 5 µM [1] [%]	inhibition at 10 µM [1] [%]	% NO inhibition [1]	viability at 24 h, 5 µM [2] [%]	viability at 24 h, 10 µM [2] [%]	viability at 48 h, 20 µM [3] [%]	viability at 48 h, 20 µM [4] [%]	% NO Inhibition ± SD ([1]; LPS alone 1 μg/ml (0% reference)) [%]
C=C(C)[C@@H]1CCC(C)=C[C@H]1c1c(O)cc(CCCCC)c(CN2CCN(C3CC3)CC2)c1O [A13, 2′-{(4-cyclopropylpiperazin-1-yl)methyl}-cannabidiol]	12 ± 1.7	27.3 ± 2.6	more than 25%	89.3 ± 2	93.9 ± 4.3	96.2 ± 4.87	97.2 ± 3.51	–
C=C(C)[C@@H]1CCC(C)=C[C@H]1c1c(O)cc(CCCCC)c(CN2CCC(C(C)C)CC2)c1O [A3, 2′-{(4-isopropylpiperidin-1-yl)methyl}-cannabidiol]	4.9 ± 1.4	10.7 ± 2.1	–	92.8 ± 0.9	89.9 ± 1.2	103 ± 2.25	99.7 ± 0.42	–
C=C(C)[C@@H]1CCC(C)=C[C@H]1c1c(O)c(CN2CCOCC2)c(CCCCC)c(CN2CCOCC2)c1O [A1′, 2′,4′-{bis-(morpholin-1-ylmethyl)}-cannabidiol]	15.6 ± 2.5	23.4 ± 3.8	greater than 20%	94.4 ± 0.9	92.4 ± 1.2	93.6 ± 2.01	94.7 ± 1.86	–
C=C(C)[C@@H]1CCC(C)=C[C@H]1c1c(O)cc(CCCCC)c(CN2CCN(C(C)=O)CC2)c1O [A11, 2′-[{4-(piperazin-1-yl)ethan-1-one}methyl]-cannabidiol]	15.6 ± 1.7	31.4 ± 3.6	more than 25%	93.3 ± 0.4	91.6 ± 0.2	101 ± 3.48	102 ± 1.53	–
C=C(C)[C@@H]1CCC(C)=C[C@H]1c1c(O)cc(CCCCC)c(CN2CCCCC2)c1O [A2, 2′-(piperidin-1-ylmethyl)-cannabidiol]	–	–	–	65.9 ± 6.5	61.7 ± 8.1	95.8 ± 1.1	96.9 ± 3.77	–
C=C(C)[C@@H]1CCC(C)=C[C@H]1c1c(O)cc(CCCCC)c(CN2CCN(CC)CC2)c1O [A9, 2′-{(4-ethylpiperazin-1-yl)methyl}-cannabidiol]	14.6 ± 3.3	27.9 ± 0.4	more than 25%	94.2 ± 2.1	87.6 ± 0.1	91.67 ± 0.56	94.3 ± 1.3	–
C=C(C)[C@@H]1CCC(C)=C[C@H]1c1c(O)cc(CCCCC)c(CNc2cnccn2)c1O [A16, 2′-{(pyrazin-2-ylamino)methyl}-cannabidiol]	11.5 ± 1.2	18.3 ± 1	–	93.6 ± 1.3	87.7 ± 0.8	86.97 ± 0.12	89.85 ± 0.03	–
C=C(C)[C@@H]1CCC(C)=C[C@H]1c1c(O)cc(CCCCC)c(CN2CCN(CCO)CC2)c1O [A10, 2′-[{4-(2-hydroxyethyl)piperazin-1-yl}methyl]-cannabidiol]	48.9	68.3	–	97.5 ± 1.7	95 ± 2.6	98.1 ± 2.25	96 ± 2.17	–
C=C(C)[C@@H]1CCC(C)=C[C@H]1c1c(O)cc(CCCCC)c(CN2CCN(c3ccccc3)CC2)c1O [A12, 2′-{(4-phenylpiperazin-1-yl)methyl}-cannabidiol]	8.6 ± 0.93	11.4 ± 3.5	–	94.5 ± 1	92.7 ± 0.5	95.9 ± 3.39	96.2 ± 2.32	–
C=C(C)[C@@H]1CCC(C)=C[C@H]1c1c(O)cc(CCCCC)c(CN2CCC(O)CC2)c1O [A4, 2′-{(4-hydroxypiperidin-1-yl)methyl}-cannabidiol]	11.4 ± 2.9	20.8 ± 2.5	greater than 20%	93.8 ± 1.14	90.6 ± 0.7	97.28 ± 0.54	97.71 ± 0.81	–
C=C(C)[C@@H]1CCC(C)=C[C@H]1c1c(O)cc(CCCCC)c(CN2CCC(Cc3ccccc3)CC2)c1O [A7, 2′-{(4-benzylpiperidin-1-yl)methyl}-cannabidiol]	8.4 ± 3.1	16 ± 1.2	–	90.1 ± 1.3	93 ± 1.7	102 ± 1.57	101.7 ± 0.47	–
C=C(C)[C@@H]1CCC(C)=C[C@H]1c1c(O)cc(CCCCC)c(CN2CCN(c3ncccn3)CC2)c1O [A15, 2′-[{4-(pyrimidin-2-yl)piperazin-1-yl}methyl]-cannabidiol]	4.8 ± 0.02	14.5 ± 0.6	–	93.4 ± 1.1	89.9 ± 0.9	81.8 ± 1.17	85.2 ± 1.25	–
C=C(C)[C@@H]1CCC(C)=C[C@H]1c1c(O)cc(CCCCC)c(CN2CCC(c3ccccc3)CC2)c1O [A5, 2′-{(4-phenylpiperidin-1-yl)methyl}-cannabidiol]	5.8 ± 2.4	12.3 ± 3.1	–	94.4 ± 1.3	90.4 ± 0.9	94.5 ± 1.12	90.6 ± 1.85	–
C=C(C)[C@@H]1CCC(C)=C[C@H]1c1c(O)cc(CCCCC)c(CN2CCN(C)CC2)c1O [A8, 2′-{(4-methylpiperazin-1-yl)methyl}-cannabidiol]	10.7 ± 2.3	19.6 ± 3.2	–	94.7 ± 2.7	87.1 ± 1.9	89.4 ± 1.7	93.3 ± 0.39	–
C=C(C)[C@@H]1CCC(C)=C[C@H]1c1c(O)cc(CCCCC)c(CN2CCC(C(F)(F)F)CC2)c1O [A6, 2′-[{4-(trifluoromethyl)piperidin-1-yl}methyl]-cannabidiol]	7.6 ± 3	11.8 ± 1.9	–	94.1 ± 1.8	92 ± 1.1	27 ± 2.02	25.3 ± 1.47	–
C=C(C)[C@@H]1CCC(C)=C[C@H]1c1c(O)cc(CCCCC)c(CN2CCN(c3ccc(Cl)cc3)CC2)c1O [A14, 2′-[{4-(4-chlorophenyl)piperazine}methyl]-cannabidiol]	8.5 ± 1.7	14.2 ± 3.8	–	95.2 ± 0.7	89.8 ± 1.1	90.5 ± 0.14	95.9 ± 4.04	–
Lipopolysaccharide [LPS, reference compound]	–	–	–	–	–	–	–	0

Reference: US20260315499A1, “2'- {HETEROCYCLYL (ARYL/ALKYL) METHYL} - CANNABIDIOL COMPOUNDS AND PROCESS FOR PREPARATION THEREOF” (COUNCIL OF SCIENTIFIC & INDUSTRIAL RESEARCH, priority 2023, published 2026)
